From US20220362174A1, “Use of R-enantiomer Beta2-agonists for prevent and treatment of pulmonary inflammation and inflammatory remodeling for reduced adverse effects” (priority 2019, published 2022)
“Also recorded” adds a separate entry of the source.

Tests used:
[1] = tested on: Th2 cytokines (IL-4, IL-5, IL-13); test: Analysis of cytokine levels in BAL fluid (ELISA); type: in vivo, mice; conditions: for cytokines released (FIG. 3): pretreatment for 7 consecutive days; for IL-5 in BALF / IL-4 release in BALF / IL-13 release in BALF: vs OVA group
Experimental: (§1) OVA sensitized/challenged asthma model Mice were sensitized and challenged with ovalbumin (OVA) or normal saline. Briefly, mice were sensitized by intraperitoneal (i.p.) injection of 0.2 mL of 2% aluminum hydroxide (ALUM) gel containing 10 μg of OVA antigen on days 0 and 14. On days 21, 22 and 23, the mice were challenged with 1% OVA in saline (0.01 g/mL) for 20 min via. a nebulizer (PART Turbo boy). On day 26, a 20 min nebulized OVA challenge with 5% OVA in saline (0.05 g/mL) was conducted. The control group received 0.2 mL of saline with 2% ALUM administered intraperitoneally on days 0 and 14 before receiving 20 min nebulized normal saline without OVA on days 21, 22, 23 and 26.
BAL fluid samples were analyzed for the concentrations of mouse IL-4 and IL-5 using commercial ELISA kits according to the manufacturers instructions (R&D Systems, Minneapolis, Minn.). IL-13 was assayed in BAL fluid with a mouse IL-13 immunoassay kit (Abeam, Cambridge, UK) following the manufacturer's protocol.

NF-κB = test: mRNA of NF-κB in the lung by quantitative real-time PCR; type: in vivo, mice; conditions: vs OVA group
Experimental: as §1
The level of mRNA of NF-κB in the lung were analyzed by quantitative real-time PCR analysis. The total RNA was extracted from lung tissue using RNaEX™ Total RNA Isolation Kit (Generay Biotech). The quality and quantity of RNA samples were assessed by NanoDrop ND-2000c spectrophotometer (Thermo Fisher Scientific, Inc., Wilmington, Del.). Total RNA (1 μg) was reverse transcribed into cDNA using cDNA Reverse Transcription Kit (Vazyme Biotech, Nanjing, China) according to the manufacturer's instruction. Real-time PCR reactions were performed using the 7500 real-time-PCR system (Applied Biosystems, Foster City, Calif., USA) with AceQ qPCR SYBR Green Master Mix (Vazyme Biotech, Nanjing, China). […]

[2] = tested on: OVA-sensitized/OVA-challenged mice; test: Lung histopathology (H&E, PAS, Masson) after R-, S-, rac-terbutaline; type: in vivo; conditions: for PAS stain of lung tissues: inflammatory and histopathological changes, collagen deposition: Example 3, vs model; for wall thickness of vessels / inflammatory remodeling processes: repeated inhalation, OVA mice; for PAS and Masson staining: subepithelial matrix glycoproteins, goblet cell hyperplasia, collagen deposition: vs OVA group; for smooth muscle hypertrophy, thickness of bronchial and vascular smooth muscle layer: vs OVA-treated mice
Experimental: as §1
Left lung tissue was obtained for histopathology and fixed in 10% formalin for 24 h, followed by paraffin-embedded and then were sectioned at 4 μm for routine staining with hematoxylin and eosin (H&E, Solarbio, Beijing, China), or with periodic acid-Schiff (PAS, Solarbio, Beijing, China), or submitted to Masson's trichrome staining (Baso, Zhuhai, China). Images of the stained lung sections were obtained by an Axisplus image-capturing system (Zeiss, Germany) and then a minimum of 3 bronchi (luminal diameter, 150-500 μm) were analyzed per mice for various parameters using an image analyzing computer system (IPP) by pathologists blinded to grouping. Histological score, airway smooth muscle thickness, PAS score (goblet cells hyperplasia), and collagen deposition were evaluated by a semi-quantitative scoring method.

OVA-sIgE = test: Measurement of OVA-sIgE in plasma (ELISA); type: in vivo, mice; conditions: vs OVA group
Experimental: as §1
OVA-sIgE in plasma was measured using an enzyme-linked immunosorbent assay (ELISA) kit following the manufacturer's specification.

BALB/c mice = test: Survival study after LPS challenge (sepsis); type: in vivo
Experimental: Treatment were given intraperitoneally for 3 consecutive days. One hour after the 3rd day treatments, LPS (15 mg/kg) was administered intraperitoneally. The animals were monitored. Survival rate was then recorded every 12 h for 144 hours.

p38 MAPK = test: Western blot of lung tissue: p38 MAPK phosphorylation; type: in vivo, mice; conditions: vs OVA group
Experimental: as §1
(§2) Total protein from lung tissue was extracted according to the guidelines of manufacturer (Beyotime, China) and the concentrations were determined by BCA assay (Pierce). Primary antibodies against p38 MAPK (CST #8690), p-p38 MAPK (Thr180/Tyr182, CST #4511), NF-κB p65 (GeneTex #GTX102090), p-NF-κB p65 (S536, CST #3033) and GAPDH (Affinity #AF7021) as a standard were purchased and used.

NF-κB p65 = test: Western blot of lung tissue: NF-κB p65 phosphorylation; type: in vivo, mice
Experimental: as §1, §2

NF-κB and MARK pathways = test: NF-κB and MARK pathways, cytokines and ROS in LPS sepsis
Excerpt: LPS interacts with pathogen recognition receptors such as TLRs would also activate NF-κB and MARK pathways, which would further lead to an over-production of cytokines. […] The “cytokine storm” in sepsis involves in excessive release of INFs, IL-1B, IL-2,4,6,10,12, TNFa and MCP etc.
In sepsis, there are also over productions of chemokines such as ROS. […] This invention disclosed the similar effects of other RS-racemic, S-enantiomer or R-enantiomer beta2 agonists including: salbutamol, bambuterol, vilanterol, clenterol, salmeterol, formoterol, trantinterol and Indacaterol and other β2 agonists.

[3] = tested on: OVA-sensitized/OVA-challenged mice; test: Whole blood analysis and eosinophils counts in BAL fluid; type: in vivo; conditions: for per cent of eosinophil counts in blood and BALF: OVA asthma mice after repeated inhalation
Experimental: as §1
After Methacholine challenge, mice were anesthetized, blood was collected for hematology analysis. Part of the collected blood was transferred to a heparinized Eppendorf tube, gently mixed and centrifuged under 845×g at 4° C. for 10 min to isolate plasma specimen for further analysis. Broncho alveolar lavage (BAL) was performed on the right lung using 0.3 mL of phosphate buffered saline (PBS) for four times. The saline was instilled into the lungs and allowed to equilibrate for 30 s before recovery, after centrifugation supernatants were stored at −80° C. for further cytokines analysis while cell pellet was suspended in 0.5 ml PBS and the eosinophils counts were performed using Wright's stain. Then all the organs (liver, right lung lobe, spleen, kidneys, heart, brain) were excised surgically and washed totally with ice-cold PBS to clear the blood and then blotted dry with filter paper. These tissue specimens were then accurately weighted and stored at −80° C. for detecting the drug distribution by LC-MS/MS. White blood cell (WBC) counts and differential WBC counts were analyzed using a ProCyte Dx Hematology Analyzer (IDEXX Laboratories) in 4 h after blood collection.

[4] = tested on: OVA-sensitized/OVA-challenged mice; test: Airway responsiveness to methacholine by whole-body plethysmography (Penh) in OVA sensitized/challenged asthma model; type: in vivo; conditions: for airway bronchoconstriction/hyperactivity (Penh) in response to increased doses of Mch: Mch 2, 10, 20 mg/mL aerosol, rac-ter at double dose of R-ter
Experimental: as §1
In vivo airway responsiveness to methacholine (Mch) was assessed on day 28 in conscious, freely moving, spontaneously breathing mice by a whole-body plethysmography (Buxco Electronics Inc.). Mice were challenged with aerosolized saline or increasing concentrations of Mch (2, 10, 20 mg/mL) administered by an ultrasonic nebulizer for 2 min. Before Mch challenge, a 20 μL drug aerosol or saline was given to the mice because of the short-acting bronchodilating effect of terbutaline. The degree of bronchoconstriction was expressed as enhanced pause (Penh), a calculated dimensionless value that correlates with measurement of airway resistance, impedance, and intrapleural pressure. Penh values were recorded and averaged for 4 min after each nebulization challenge.

[5] = 0.5 mg/kg + LPS, Saline + LPS 90.9

SMILES	cytokines released (FIG. 3) [1]	NF-κB expression (mRNA transcript) in lung (NF-κB)	PAS stain of lung tissues: inflammatory and histopathological changes, collagen deposition [2]	wall thickness of vessels / inflammatory remodeling processes [2]	PAS and Masson staining: subepithelial matrix glycoproteins, goblet cell hyperplasia, collagen deposition [2]	smooth muscle hypertrophy, thickness of bronchial and vascular smooth muscle layer [2]	OVA-sIgE level in plasma (OVA-sIgE)	p38 MAPK phosphorylation (ratio of phosphorylated to total p38 MAPK) (p38 MAPK)	ratio of phosphorylated to total p65 NF-κB (NF-κB p65)	NF-κB and MARK pathways activated by LPS (expression or phosphorylation) (NF-κB and MARK pathways; LPS sepsis)	per cent of eosinophil counts in blood and BALF [3]	airway bronchoconstriction/hyperactivity (Penh) in response to increased doses of Mch [4]	also measured
CC(C)(C)NC[C@H](O)c1cc(O)cc(O)c1 [R-terbutaline]	significantly inhibited the release	effectively inhibited	significantly ameliorate; also recorded: significantly alleviated or improved	significantly diminished	reversed and recovered toward normal	suppressed	markedly inhibited	decreased	decreased	significantly inhibited	significantly reduced	attenuated significantly	IL-5 in BALF [1]: significantly inhibited; IL-5 in BALF ([1]; listed as R-ter): significantly reduced; degree of inflammatory cell infiltration (H&E, histological score) ([2]; rac-terbutaline at double dose): ameliorated; Percent of death after LPS challenges, 12 h (BALB/c mice; 0.5 mg/kg + LPS, Saline + LPS 0): 0%; Percent of death after LPS challenges, 24 h (BALB/c mice; 0.5 mg/kg + LPS, Saline + LPS 36.4): 18.2%; Percent of death after LPS challenges, 36 h (BALB/c mice; 0.5 mg/kg + LPS, Saline + LPS 72.7): 27.3%; Percent of death after LPS challenges, 48 h (BALB/c mice; [5]): 36.4%; Percent of death after LPS challenges, 72 h (BALB/c mice; [5]): 36.4%; Percent of death after LPS challenges, 144 h (BALB/c mice; [5]): 36.4%; rate of mortality/death after LPS challenge (in words) (BALB/c mice; in comparison of LPS challenged group without pretreatment (mortality 90.9%)): greatly reduced or even diminished; p38 MAPK phosphorylation (ratio of phosphorylated to total p38 MAPK) (p38 MAPK; listed as R-ter): markedly suppressed; over production of inducible NO (iNO) and another ROS (NF-κB and MARK pathways; LPS sepsis): significantly prevent and inhibit; production or release of cytokines (cytokine storm) (NF-κB and MARK pathways; sepsis): significantly reduced; influx of eosinophils into BALF ([3]; OVA asthma mice): significantly inhibited; baseline Penh value (baseline airway reactivity) ([4]; exposure to saline, after 7 days inhalation pretreatment, OVA group 0.80±0.12, Control group 0.55±0.08, rac-terbutaline at double molar amount): significantly reduce
CC(C)(C)NC[C@@H](O)c1cc(O)cc(O)c1 [S-terbutaline]	did the opposite	further enhanced	further enhanced; also recorded: further worsened	further increase of wall thickness of vessels	further exacerbated	further enhanced	further increase	enhanced	enhanced	further enhanced	significantly increased; also recorded: significantly higher; also recorded: the highest	further exacerbation of airway hyperactivity	IL-4 release in BALF [1]: further increase; IL-13 release in BALF [1]: further increase; IL-4 release in BALF ([1]; listed as S-ter): further increased; IL-13 release in BALF ([1]; listed as S-ter): further increased; p38 MAPK phosphorylation (ratio of phosphorylated to total p38 MAPK) (p38 MAPK; listed as S-ter): further increased; lung compliance ([4]; OVA induced asthma mice, baseline): reduced lung compliances
